Source: patent publication US20040110228A1, “Combinatorial organic synthesis of unique biologically active compounds” (priority 2002, published 2004)
Where a SMILES comes first, the peptide text is derived from it. Where no end group is shown, it is not given here. [ ]: non-standard residue; d: D form. ξ: configuration not given here. ξW = NC(Cc1c[nH]c2ccccc12)C(=O)O; dTic = O=C(O)[C@H]1Cc2ccccc2CN1; Tic = O=C(O)[CH]1Cc2ccccc2CN1; ξF = NC(Cc1ccccc1)C(=O)O

Tests used:
[1] = tested on: Holliday junction (HJ) intermediate; assay: in vitro Holliday junction trapping assay (recombination of radiolabeled and unlabeled DNA substrates); type: biochemical; conditions: 0.01 mg/ml concentrations of peptides; FIG. 56
Description: The eight macrocyclic compounds shown in FIGS. 55 were tested for their ability to bind to the HJ in an in vitro assay. The assay employs a recombination reaction between one radiolabeled double-stranded DNA substrate and an unlabeled partner DNA substrate. Successful recombination gives recombination products and very small amounts of HJ intermediate. A previously identified linear peptide dimer of […] was used as a positive control because it was known to accumulate HJs, as described in […] et al., 2000, supra). During the recombination reaction, two initial DNA cleavage and ligation reactions must take place to form the junction, and two subsequent DNA cleavage and ligation reactions resolve the HJs into double stranded recombination products.

Salmonella typhimurium = assay: cell growth assay (OD600); type: cell-based; conditions: Salmonella enterica serovar Typhimurium Ames strain and LT2 strain; peptides in the medium
Int protein [2] = molecular target: T1, Int protein (Escherichia phage lambda, UniProt P03700); assay: in vitro recombination reaction catalysed by the Int protein (attL/attR substrates, gel); type: biochemical
Int protein [3] = molecular target: T1, Int protein; conditions: Cassell et al. 2000; cited from earlier work
[4] = tested on: Bare Lymphocyte Syndrome (BLS) cell line; type: cell-based
Description: Toxicity of peptides KWWCRW and WKHYNY was determined by testing the inhibition of a eukaryotic cell line using a vital stain. The peptides were determined to not be cytotoxic in a non-adherent eukaryotic cell line, Bare Lymphocyte Syndrome (BLS), at concentrations below 250 mg/ml. (Allicotti et al, Manuscript in Preparation). The MTT cytotoxicity assay was used to measure cytotoxicity of the class B synergimycin compounds (Mosmann, Immunol. Methods 65:55-63 (1983)). In this assay, 3-(4,5-dimethylthiazol-2-yl)-2,5-diphenyl tetrazolium bromide (MTT) is converted by live cells into the purple compound formazan. The amount of formazan produced is measured at OD570. The absorbance of the sample wells is compared to the absorbance of the control wells. The readings are used to calculate an IC50 for each peptide. This value represents the concentration of each peptide that reduces the growth of the BLS cells to 50% of the maximum growth measured in the controls.

[5] = tested on: bacterial strains, both gram positive and gram negative; assay: growth inhibition assays in microtiter plates (cell density at 600 nm); type: cell-based; conditions: 101 μg/ml and 100 μg/ml; FIG. 57
Description: The eight macrocyclic compounds shown in FIGS. 55 were tested for their ability to bind to the HJ and inhibit bacterial growth in an in vivo assay. Growth inhibition assays were performed in microtiter plates, by comparing the growth of bacteria in the presence and absence of compounds. Cell density at 600 nm was determined for a series of bacterial strains, both gram positive and gram negative, in the presence and absence of macrocyclic compounds. […] Measurements were taken using a BioRad microtiter plate reader. […] The diluted cultures were shaken at 37° C. and optical densities were measured at 30-minute intervals in order to follow their growth. […]
In order to test the inhibitory potency of the peptides, cell growth assays were performed. […] The cell growth assays were performed in microtiter plates; measurements are taken using a BioRad microtiter plate reader.
Overnight bacterial cultures were diluted 1:20 into media and each test compound was added in no more than 10% of the volume of the final suspension. […] The diluted cultures were shaken at 37° C. and optical densities were measured at 30 minute intervals to follow their growth. […]
Four linear heptamers prepared according to FIGS. 63 were tested for their bacteria growth inhibition. […] Measurements were taken using a BioRad microtiter plate reader. […]

T1 sequence (P0A6Y1 whole entry): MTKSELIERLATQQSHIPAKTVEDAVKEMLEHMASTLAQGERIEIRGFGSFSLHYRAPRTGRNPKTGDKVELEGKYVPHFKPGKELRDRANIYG
T1 sequence (P03699 whole entry, further chain): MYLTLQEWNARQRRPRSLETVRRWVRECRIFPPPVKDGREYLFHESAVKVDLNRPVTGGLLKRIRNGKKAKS
T1 sequence (P0A6X7 whole entry, further chain): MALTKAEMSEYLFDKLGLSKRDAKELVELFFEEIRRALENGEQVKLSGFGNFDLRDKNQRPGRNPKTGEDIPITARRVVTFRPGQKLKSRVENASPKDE
T1 sequence (P03700 whole entry): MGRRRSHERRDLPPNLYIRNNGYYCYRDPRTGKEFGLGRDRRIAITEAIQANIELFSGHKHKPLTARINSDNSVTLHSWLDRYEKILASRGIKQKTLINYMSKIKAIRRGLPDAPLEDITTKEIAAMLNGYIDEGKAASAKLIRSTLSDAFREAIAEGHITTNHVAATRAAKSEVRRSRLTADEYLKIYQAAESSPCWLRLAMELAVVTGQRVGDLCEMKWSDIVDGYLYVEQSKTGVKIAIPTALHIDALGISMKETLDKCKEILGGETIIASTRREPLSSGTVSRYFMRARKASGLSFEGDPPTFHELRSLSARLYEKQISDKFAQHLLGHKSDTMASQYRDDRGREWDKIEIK

## O=C1NC(Cc2c[nH]c3ccccc23)C(=O)N2Cc3ccccc3CC2C(=O)NC(Cc2ccccc2)C(=O)NC(Cc2c[nH]c3ccccc23)C(=O)N2Cc3ccccc3CC2C(=O)NC1Cc1ccccc1 (stereo not shown) [B] (cyclo(FW[Tic]FW[Tic]); configuration not given here)
[1]
  accumulation of HJ intermediates / binding to the HJ: particularly active

## WRWYCR [WRWYCR, TrpArgTrpTyrCysArg]
Salmonella typhimurium
  inhibition of bacterial cell growth, FIG. 12: inhibition of bacterial cell growth
Int protein [2]
  potency among peptides of a screen for site-specific recombination inhibitors: the most potent

## TrpLys(His or Ala)TyrAsnTyr [WK(HorA)YNY]
Int protein [3]
  potency among Holliday junction-stabilizing peptide families: the most potent

## O=C1NC(Cc2ccccc2)C(=O)N2Cc3ccccc3C[C@@H]2C(=O)NC(Cc2ccccc2)C(=O)NC(Cc2ccccc2)C(=O)N2Cc3ccccc3C[C@@H]2C(=O)NC1Cc1ccccc1 (stereo partly shown) [D] (cyclo([dTic][ξF][ξF][dTic][ξF][ξF]))
[1]
  accumulation of HJ intermediates / binding to the HJ: particularly active

## WKHYNY [WKHYNY]
[4]
  concentrations at which not cytotoxic: below 250 mg/ml

## O=C1NC(Cc2ccccc2)C(=O)N2Cc3ccccc3CC2C(=O)NC(Cc2ccccc2)C(=O)NC(Cc2ccccc2)C(=O)N2Cc3ccccc3CC2C(=O)NC1Cc1ccccc1 (stereo not shown) [A] (cyclo(FF[Tic]FF[Tic]); configuration not given here)
[1]
  accumulation of HJ intermediates / binding to the HJ: particularly active

## O=C1NC(Cc2c[nH]c3ccccc23)C(=O)N2Cc3ccccc3C[C@@H]2C(=O)NC(Cc2ccccc2)C(=O)NC(Cc2c[nH]c3ccccc23)C(=O)N2Cc3ccccc3C[C@@H]2C(=O)NC1Cc1ccccc1 (stereo partly shown) [E] (cyclo([dTic][ξF][ξW][dTic][ξF][ξW]))
[1]
  accumulation of HJ intermediates / binding to the HJ: particularly active

## KWWCRW [KWWCRW, LysTrpTrpCysArgTrp]
[4]
  concentrations at which not cytotoxic: below 250 mg/ml

## O=C1CNC(=O)C(Cc2c[nH]c3ccccc23)NC(=O)C(Cc2ccccc2)NC(=O)CNC(=O)C(Cc2c[nH]c3ccccc23)NC(=O)C(Cc2ccccc2)N1 (stereo not shown) [H] (cyclo(GFWGFW); configuration not given here)
[5]
  bacterial growth inhibition by macrocyclic compounds: greatest level of activity
